Target: TC-PTP (Homo sapiens (Human), UniProt P17706)
Assay: Enzyme assay for TC-PTP
Type: biochemical
Settings: inhibition of TC-PTP enzymatic activity
Experimental: 1) Enzyme Assay for TC-PTP
The assay was carried out at room temperature in 96 well plates. The reaction mixture in 170 μl contained 50 mM Bis-Tris (pH=6.3), 2 mM EDTA, 5 mM N,N′-dimethyl-N,N′bis(mercaptoacetyl)hydrazine (DMH) and 10 μM fluorescein diphosphare (FDP) or 6,8-difluoro-4-methylumbelliferyl phosphate (DiFMUP). 10 μl of 10 concentrations (serial dilution) of the test compound (inhibitor) dissolved in DMSO or DMSO alone for control was added to each well and the plate was mixed for 2 min. The reaction was initiated by adding 20 μl of diluted TC-PTP (50 nM for FDP, 0.5 nM for DiFMUP in 50 mM Bis/Tris (pH=6.3), 2 mM EDTA, 5 mM DMH, 20% glycerol and 0.01% Triton X-100. The phosphatase activity was followed by monitoring the appearance of the fluorescent product fluorescein monophosphate (FMP) or 6,8-difluoro-7-hydroxyl-4-coumarin (DiFMU) continuously for 15-30 min, using the Spectromax Gemini fluorescent plate reader ([…]) with excitation of 440 nm and emission at 530 nm (cutoff filter at 525 nm) for FDP and excitation at 360 nm and emission at 450 nm (cutoff filter at 435 nm) for DiFMUP. All the assays were done at least in duplicate. The initial rate of FMP or DiFMU formation is plotted against the concentration of inhibitor and the data was fitted to 4-parameter equation and the inflection point of the fit is the IC50.

Sequence of TC-PTP (P17706 whole entry, species assumed): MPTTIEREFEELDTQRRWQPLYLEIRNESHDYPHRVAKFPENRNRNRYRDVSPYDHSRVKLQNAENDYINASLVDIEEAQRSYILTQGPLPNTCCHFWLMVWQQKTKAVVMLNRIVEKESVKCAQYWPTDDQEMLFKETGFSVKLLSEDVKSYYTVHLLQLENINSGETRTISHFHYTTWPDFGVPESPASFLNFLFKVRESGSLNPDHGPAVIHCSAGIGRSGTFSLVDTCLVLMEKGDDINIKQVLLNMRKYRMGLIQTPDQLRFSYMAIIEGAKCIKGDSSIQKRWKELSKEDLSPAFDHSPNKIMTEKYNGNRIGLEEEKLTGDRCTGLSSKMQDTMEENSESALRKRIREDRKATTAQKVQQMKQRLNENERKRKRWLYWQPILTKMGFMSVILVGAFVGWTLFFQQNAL

## [(3-BROMO-7-CYANO-2-NAPHTHYL)(DIFLUORO)METHYL]PHOSPHONATE [Ex. 10]
  IC50: 0.49 µM
